The structures appear in SMILES notation. Where two headings read alike, the source gives them in different places. Marks after values point to notes of the source that are not given here.

Data set [1] can be described thus: Chemical stability in HBSS at pH 5, 6, 7 and 8. The format is physicochemical. The method, then:
The chemical stability of GA, MG, PGG and MSKE was determined in HBSS at pH 5, 6, 7 and 8. The test compounds were added to HBSS to obtain the final concentrations (2 and 20 μM) for each standard compound or MSKE (0.25 mg/mL), which is equivalent to concentrations of 26.70 ± 1.35 µM GA, 4.90 ± 0.38 µM MG and 27.09 ± 8.01 µM PGG. The solutions at pH 5, 7 and 8 were then incubated in a water bath at 37 °C for 4 h, whereas the solutions at pH 6 were incubated for 8 h. Samples (200 μL) were collected at different time intervals (0, 1, 2, 3 and 4 h or 0, 1, 2, 4, 6 and 8 h) and then vortexed and centrifuged at 15,500 rpm for 15 min. The supernatant was injected into the UPLC for analysis. All experiments were performed in triplicate.
The chemical and biological stabilities of the phenolic compounds were expressed as the concentration of the analyte at different time points relative to the concentration of the same analyte at time zero multiplied by 100 (% recovery).

A short description of data set [2]: Excretion in urine and feces after oral administration in rats. Particulars: for Total Mass in Feces (0−24 h) / Total Mass in Urine (0−24 h): p.o.; for dose excreted: Sprague-Dawley, rat, blood, urine and feces, oral, 0-24 h, read-out: % recovery (total mass recovery: blood + urine + feces / initial mass). It is filed as in vivo, Sprague-Dawley rats. As for the experimental part: (§1) SD rats (five rats/group) were individually housed in stainless-steel metabolic cages, which allowed for the separation and collection of urine and feces. The rats were fasted overnight with ad libitum access to water prior to the day of the experiment. After a rat was anesthetized with isoflurane gas, the prepared suspension of test compound in an oral suspension vehicle was administered to the animals via oral gavage at a dose of 20 mg/kg for each compound in the mixture of MG and PGG or at 143 mg/kg MSKE, which is equivalent to approximate doses of 20 mg/kg PGG and 0.13 mg/kg MG. Subsequently, the rats’ tails were snipped near the tip to collect blood samples (approximately 50 µL), which were collected in heparinized tubes at 0, 0.50, 1, 2, 4, 6, 8 and 24 h. To investigate the excretion of phenolic compounds, urine and feces were collected between 0–24 h post-administration into tubes containing penicillin G (200 mg) and dry tubes, respectively, which were pre-weighted before use. After completing the pharmacokinetic study, the urine volume and dry feces weights were recorded, and all samples were stored at −80 °C until analysis.
(§2) The blood and urine samples were prepared according to our previously reported methods. The fecal samples were prepared by adding 30 mL methanol to the sample, and the mixture was then vortexed and sonicated for 30 min to obtain the fecal lysates, which were extracted via the same method.
(§3) The pharmacokinetic parameters of MG and PGG were calculated based on the non-compartmental method using WinNonlin 3.3 (Pharsight Corporation, Mountain View, CA, USA). The total mass of analytes was calculated according to the following equations (Equations (3)–(6)): The mass recovery (%) = (total mass in blood + total mass in urine + total mass in feces)/initial mass of analyte (3) Total mass in blood = C24h in blood × rat blood volume (70 mL/kg of body weight) (4) Total mass in urine = C0–24h in urine × volume of urine (0–24 h) (5) Total mass in feces = C0–24h in fecal lysate × volume of fecal lysate (30 mL) (6) where C24h in the blood is the concentration of analyte found in the blood sample at 24 h, and C0–24h in the urine and C0–24h in the fecal lysate are the concentrations of the analyte found in the urine and fecal samples, respectively, between 0 and 24 h.

The conditions of data set [3]: human, in vivo, po; cited from earlier work.
Data set [4] in a line: In vivo oral pharmacokinetic study in SD rats. Set-up: species or system Sprague-Dawley rats. The following applies: for MRT last / half-life / k el / Cmax / Tmax / AUC(0-t): Sprague-Dawley, rat, blood, po; for k el: read-out: Ke (converted); for AUC(0-t): read-out: AUC0–24h. The method, then:
as §1, §2, §3
A Waters UPLC system coupled with an ESI triple quadrupole mass spectrometer (QTRAP5500, AB Sciex, Foster City, CA, USA) was used to analyze MG and PGG in biological samples. The LC–MS/MS conditions were previously published. The UPLC conditions were Kinetex C18 column at 50 mm × 2.1 mm I.D. and 5 µm particle size (Phenomenex Inc.); mobile phase A at 0.1% formic acid in deionized water; mobile phase B at 100% acetonitrile; gradient at 0.0–0.5 min (0% B), 0.5–1.0 min (0%–30% B), 1.0–2.0 min (30%–90% B), 2.0–3.0 min (90% B), 3.0–3.5 min (90%–0% B) and 3.5–5.0 min (0% B); flow rate at 0.5 mL/min; column temperature at 40 °C; sample temperature at 20 °C; and injection volume at 10 µL. The mass spectrometer employed an MRM method in the negative ion mode. The instrument-dependent parameters for obtaining the mass spectra were set as follows: ionspray voltage at −4.5 kV; ion source temperature at 550 °C; gas 1 at 60 psi; gas 2 at 60 psi; and curtain gas at 20 psi. The unit mass resolution was set in both mass-resolving quadruples Q1 and Q3. Because of the absence of authentic standard for the glucuronide and sulfate metabolites of MG and PGG, qualification of the metabolites in the biological samples was accomplished using the compound-dependent parameters for MG and PGG.

Setting [5] is: as principle in MSKE 0.25 mg/mL, pH 5, 6 or 7, 4 h.
Setting [6] is: as principle in MSKE 0.25 mg/mL, pH 6, 8 h.
Where [7] appears, read: as principle in MSKE 0.25 mg/mL, pH 8, 4 h.
[8] abbreviates: individual compound 2 and 20 µM, pH 5 or 7, 4 h, 37 °C.
Where [9] appears, read: MSKE 143 mg/kg (20 mg/kg PGG and 0.13 mg/kg MG).
The mark [10] stands for this setting: mixture of MG and PGG 20 mg/kg each.
Where [11] appears, read: mixture 20 mg/kg, p.o. vs i.p. (ref 14).
Setting [12] is: p.o., MSKE 143 mg/kg (20 mg/kg PGG and 0.13 mg/kg MG).
Where [13] appears, read: p.o., mixture of MG and PGG 20 mg/kg each.

Turning to `O=C(O)c1cc(O)c(O)c(O)c1` [GA, Gallic acid], the “chemical stability in HBSS” value in data set [1] (setting [5]) is reported as “stable”; in data set [1] (setting [6]) it was “moderately increased recovery”; in data set [1] (setting [7]), “decomposed”; in data set [1] (setting [8]), “only stable at pH 7”. In addition, the figures for the “Total Mass in Feces (0−24 h)” value in data set [2] (setting [9]) and in data set [2] (setting [10]) were 39.47 ± 17.44 ^b µg and 9.64 ± 1.91 µg, respectively. Also, the “Total Mass in Urine (0−24 h)” value in data set [2] (setting [9]) worked out at 54.54 ± 26.59 µg; in data set [2] (setting [10]) it was 42.95 ± 26.88 µg. Moreover, in data set [3], the t1/2 is listed as roughly 1 h.

As for `COC(=O)c1cc(O)c(O)c(O)c1` [MG, methyl gallate], in data set [1] (setting [5]), the “chemical stability in HBSS” value is “increased recoveries”. In data set [1] (setting [6]), the “chemical stability in HBSS” value is “dramatically increased recoveries”. In data set [1] (setting [7]), the “chemical stability in HBSS” value is “slightly decreased recovery”. Moreover, the “chemical stability in HBSS” value in data set [1] (setting [8]) is “only stable at pH 7”. Further, in data set [4] (setting [9]), the MRT last stood at 11.1 ± 0.6 h, the half-life was 65.2 ± 49.4 h, the k el is 4.17e-06 s⁻¹ and the Cmax is 240 ± 60 nM. For the same compound, in data set [4] (setting [9]), the Tmax amounted to 0.5 h and the AUC(0-t) is 3.57 ± 0.79 µM·h. For the same compound, in data set [4] (setting [10]), the MRT last was 8.69 ± 1.57 h, the half-life was 24.8 ± 15.7 h, the k el was 1e-05 s⁻¹ and the Cmax was determined as 1130 ± 1060 nM. In data set [4] (setting [10]), the Tmax is 2.3 ± 1.64 h and the AUC(0-t) is 6.47 ± 0.75 µM·h. Moreover, in data set [4] (setting [11]), the “AUC0–24h, oral lower than intraperitoneal” value is given as roughly 17 folds; the “Cmax, oral lower than intraperitoneal” value was roughly 31 folds; the “Tmax, oral compared with intraperitoneal (slower absorption)” value is listed as “approximately 3 folds”; the “Vd, oral higher than intraperitoneal” value is “approximately 19 folds”. Further, the “t1/2, oral longer than intraperitoneal” value in data set [4] (setting [11]) is roughly 1.4 folds. In addition, in data set [4] (setting [12]), the CL was 35.2 ± 21 mL/min/kg and the Vd is 135.39 ± 21.94 L/kg. Also, in data set [4] (setting [13]), the CL was 5534.3 ± 1662 mL/min/kg and the “time of second maximum peak of blood concentration (double-peak profile)” value is 4 h. Further, in data set [2] (setting [9]), the dose excreted worked out at 73.4 ± 30%, the “Total Mass in Feces (0−24 h)” value is on record as 18.35 ± 10.14 ^b µg and the “Total Mass in Urine (0−24 h)” value is recorded as 9.81 ± 2.81 ^b µg. Further, in data set [2] (setting [10]), the dose excreted was less than 2%, the “Total Mass in Feces (0−24 h)” value is given as 3.25 ± 1.73 µg and the “Total Mass in Urine (0−24 h)” value is 100.36 ± 74.67 µg.

In general, MRT last refers to the average time that molecules of a dose stay in the body. The term half-life denotes how long it takes for the measured level to halve. As usually defined, the Cmax is the peak of the concentration-time curve. By Tmax is commonly meant the time from dosing to the highest level.

The values are drawn from paper PMC6332320, “Factors Influencing Oral Bioavailability of Thai Mango Seed Kernel Extract and Its Key Phenolic Principles” (Molecules, 2015).
